Laboratory results: patent US11684614B2, “Formulations of hydroxypyridonate actinide/lanthanide decorporation agents” (priority 2017, dated 2023)

Assay: Repeated-treatment efficacy for removing an intravenous dose of 238Pu (excretion, tissue retention, clinical observations), female and male arms
Format: in vivo, Swiss-Webster mice
Settings: male mice; for 238Pu percent increase in excretion, Total Excretion / 238Pu percent increase in excretion, Total Feces / 238Pu percent increase in excretion, Total Urine: over untreated control group; for ^238Pu percent tissue reduction, GI Trace / ^238Pu percent tissue reduction, Kidney / ^238Pu percent tissue reduction, Liver / ^238Pu percent tissue reduction, Soft Tissue / ^238Pu percent tissue reduction, Total Body / ^238Pu percent tissue reduction, Total Bone / ^238Pu percent tissue reduction, GI Tract: vs untreated control group
Description: The objective of this study was to characterize the efficacy of 3,4,3-L1(1,2-HOPO) at enhancing elimination from an internal plutonium burden in female and male Swiss-Webster mice administered a soluble citrate complex of ^238Pu and treated multiple times, starting at 24 hours after the exposure. Efficacy was evaluated by comparing the tissue contents, urinary and fecal excretions of ^238Pu in treated animals versus untreated animals.
The medical countermeasure 3,4,3-L1(1,2-HOPO) was administered parenterally (ip) or orally (po) via consecutive injections or gavages (six daily or twelve twice daily) starting at 24 hours post contamination at the following four selected doses: 30 μmol/kg ip, 150 μmol/kg po, 300 μmol/kg po, and 600 μmol/kg po (equivalent to respective approximate human doses range of […], using the accepted conversion system of mouse doses into human equivalent doses—HED—based on body surface area). Oral doses also included the permeability enhancer selected during formulation development work.
• Challenge isotope: ^238Pu • Challenge dose: 25 nCi (i.e., approximately 0.8 μCi/kg) • Route of contamination: Intravenous (iv) tail-vein • Route of treatment: Intraperitoneal Injection (ip) or Oral (po) • Frequency of treatment: Multiple (once- or twice-daily for 6 days) doses, starting 24 hr postcontamination • Treatment dose calculation: Dose calculations (mg/kg or μmol/kg) for the decorporation agent were based on the individual body weight measured after contamination. • Study Duration: 11 days, in-life
c. […] Test article and control dose formulations were prepared within 1 day of dose administration, by weighing out the appropriate amount of test article, dispersing in vehicle. For ip solutions, the test article was used alone, while for oral suspensions, a mixture of test article and excipient (90:10, w:w) was used. The pH was adjusted to 7.0-7.4 for ip administration and 5.0-5.5 for oral administration with sterile NaOH. Dose formulations were prepared at room temperature and filter-sterilized. • Storage: 2-8° C.; refrigerated; protected from light. • Characterization: The concentration of each test article formulation was verified by high-performance liquid chromatography-mass spectrometry. • Test Article Handling: Test, reference, and control article formulations were handled with the use of eye protection, gloves, and a protective laboratory coat. • Correct Dose Assurance: The test article was weighed with calibrated balances. The administration of each dose formulation was properly documented, and the amount administered to each animal recorded.
e. Experimental Procedures (In-Life Evaluations and Euthanasia) • Contamination: Single administration by intravenous (iv) tail-vein injection (0.2 mL injection volume) under isoflurane anesthesia. Three standard 0.2 mL injections were performed into polyethylene bottles and pre-loaded with aliquots of concentrated nitric acid on each injection day. Six female and six male mice were culled for necropsy 1 hr post-contamination and were used as standards. A11 standards were processed and counted together with the final samples to allow verification of the contamination dose. • Dose Administration: Single administration by intraperitoneal injection (ip) or oral gavage (po) under isoflurane anesthesia. • Mortality/Morbidity: Assessed at least once daily. • Clinical Observations: Recorded once daily (4 hr post-dose on day of treatment), or more often as clinical signs warranted. […]

[1] = 30 μmol/kg, IP, 11-day necropsy
[2] = 150 μmol/kg, 2 doses PO, 7-day necropsy
[3] = 300 μmol/kg, 1 dose PO, 7-day necropsy
[4] = 300 μmol/kg, 1 dose PO, 11-day necropsy
[5] = 300 μmol/kg, 2 doses PO, 7-day necropsy
[6] = 300 μmol/kg, PO, 11-day necropsy
[7] = 600 μmol/kg, 1 dose PO, 7-day necropsy
[8] = 600 μmol/kg, 1 dose PO, 11-day necropsy
[9] = 600 μmol/kg, PO, 11-day necropsy
[10] = 600 μmol/kg, dose PO, 7-day necropsy

O=C(NCCCN(CCCCN(CCCNC(=O)c1cccc(=O)n1O)C(=O)c1cccc(=O)n1O)C(=O)c1cccc(=O)n1O)c1cccc(=O)n1O [Formulation 343]
^238Pu excretion, Total Excretion, Avg [1]: 79.89 percent recovered dose | ^238Pu excretion, Total Feces, Avg [1]: 48.24 percent recovered dose | ^238Pu excretion, Total Urine, Avg [1]: 31.65 percent recovered dose | ^238Pu retention, GI Tract, Avg [1]: 0.53 percent recovered dose | ^238Pu retention, Kidney, Avg [1]: 0.12 percent recovered dose | ^238Pu retention, Liver, Avg [1]: 2.42 percent recovered dose | ^238Pu retention, Soft Tissue, Avg [1]: 1.14 percent recovered dose | ^238Pu retention, Total Body, Avg [1]: 20.11 percent recovered dose | ^238Pu retention, Total Bone, Avg [1]: 15.90 percent recovered dose | 238Pu percent increase in excretion, Total Excretion [1]: 168.28% | 238Pu percent increase in excretion, Total Feces [1]: 188.96% | 238Pu percent increase in excretion, Total Urine [1]: 144.22% | ^238Pu percent tissue reduction, GI Trace [1]: 72.95% | ^238Pu percent tissue reduction, Kidney [1]: 65.35% | ^238Pu percent tissue reduction, Liver [1]: 85.55% | ^238Pu percent tissue reduction, Soft Tissue [1]: 67.92% | ^238Pu percent tissue reduction, Total Body [1]: 61.72% | ^238Pu percent tissue reduction, Total Bone [1]: 46.83% | ^238Pu excretion, Total Excretion, Avg [2]: 53.58 percent recovered dose | ^238Pu excretion, Total Feces, Avg [2]: 30.26 percent recovered dose | ^238Pu excretion, Total Urine, Avg [2]: 23.32 percent recovered dose | ^238Pu retention, GI Tract, Avg [2]: 1.67 percent recovered dose | ^238Pu retention, Kidney, Avg [2]: 0.31 percent recovered dose | ^238Pu retention, Liver, Avg [2]: 21.40 percent recovered dose | ^238Pu retention, Soft Tissue, Avg [2]: 3.16 percent recovered dose | ^238Pu retention, Total Body, Avg [2]: 46.42 percent recovered dose | ^238Pu retention, Total Bone, Avg [2]: 19.87 percent recovered dose | 238Pu percent increase in excretion, Total Excretion [2]: 149.61% | 238Pu percent increase in excretion, Total Feces [2]: 174.63% | 238Pu percent increase in excretion, Total Urine [2]: 126.15% | ^238Pu percent tissue reduction, GI Tract [2]: −17.71% | ^238Pu percent tissue reduction, Kidney [2]: −4.19% | ^238Pu percent tissue reduction, Liver [2]: 18.09% | ^238Pu percent tissue reduction, Soft Tissue [2]: −5.31% | ^238Pu percent tissue reduction, Total Body [2]: 27.68% | ^238Pu percent tissue reduction, Total Bone [2]: 40.39% | ^238Pu excretion, Total Excretion, Avg [3]: 64.11 percent recovered dose | ^238Pu excretion, Total Feces, Avg [3]: 40.12 percent recovered dose | ^238Pu excretion, Total Urine, Avg [3]: 24.00 percent recovered dose | ^238Pu retention, GI Tract, Avg [3]: 1.23 percent recovered dose | ^238Pu retention, Kidney, Avg [3]: 0.17 percent recovered dose | ^238Pu retention, Liver, Avg [3]: 12.68 percent recovered dose | ^238Pu retention, Soft Tissue, Avg [3]: 1.75 percent recovered dose | ^238Pu retention, Total Body, Avg [3]: 35.89 percent recovered dose | ^238Pu retention, Total Bone, Avg [3]: 20.06 percent recovered dose | 238Pu percent increase in excretion, Total Excretion [3]: 162.02% | 238Pu percent increase in excretion, Total Feces [3]: 225.83% | 238Pu percent increase in excretion, Total Urine [3]: 110.04% | ^238Pu percent tissue reduction, GI Tract [3]: 21.76% | ^238Pu percent tissue reduction, Kidney [3]: 40.67% | ^238Pu percent tissue reduction, Liver [3]: 43.47% | ^238Pu percent tissue reduction, Soft Tissue [3]: 34.62% | ^238Pu percent tissue reduction, Total Body [3]: 40.61% | ^238Pu percent tissue reduction, Total Bone [3]: 40.06% | ^238Pu retention, GI Tract, Avg [4]: 1.03 percent recovered dose | ^238Pu retention, Kidney, Avg [4]: 0.15 percent recovered dose | ^238Pu retention, Liver, Avg [4]: 9.46 percent recovered dose | ^238Pu retention, Soft Tissue, Avg [4]: 2.20 percent recovered dose | ^238Pu retention, Total Body, Avg [4]: 33.83 percent recovered dose | ^238Pu retention, Total Bone, Avg [4]: 20.99 percent recovered dose | ^238Pu percent tissue reduction, GI Trace [4]: 30.01% | ^238Pu percent tissue reduction, Kidney [4]: 45.60% | ^238Pu percent tissue reduction, Liver [4]: 48.32% | ^238Pu percent tissue reduction, Soft Tissue [4]: 22.51% | ^238Pu percent tissue reduction, Total Body [4]: 36.96% | ^238Pu percent tissue reduction, Total Bone [4]: 30.34% | ^238Pu excretion, Total Excretion, Avg [5]: 59.71 percent recovered dose | ^238Pu excretion, Total Feces, Avg [5]: 34.14 percent recovered dose | ^238Pu excretion, Total Urine, Avg [5]: 25.57 percent recovered dose | ^238Pu retention, GI Tract, Avg [5]: 1.45 percent recovered dose | ^238Pu retention, Kidney, Avg [5]: 0.18 percent recovered dose | ^238Pu retention, Liver, Avg [5]: 15.12 percent recovered dose | ^238Pu retention, Soft Tissue, Avg [5]: 2.41 percent recovered dose | ^238Pu retention, Total Body, Avg [5]: 40.29 percent recovered dose | ^238Pu retention, Total Bone, Avg [5]: 21.12 percent recovered dose | 238Pu percent increase in excretion, Total Excretion [5]: 166.71% | 238Pu percent increase in excretion, Total Feces [5]: 197.01% | 238Pu percent increase in excretion, Total Urine [5]: 138.32% | ^238Pu percent tissue reduction, GI Tract [5]: −2.24% | ^238Pu percent tissue reduction, Kidney [5]: 39.84% | ^238Pu percent tissue reduction, Liver [5]: 42.11% | ^238Pu percent tissue reduction, Soft Tissue [5]: 19.73% | ^238Pu percent tissue reduction, Total Body [5]: 37.23% | ^238Pu percent tissue reduction, Total Bone [5]: 36.64% | ^238Pu excretion, Total Excretion, Avg [6]: 66.17 percent recovered dose | ^238Pu excretion, Total Feces, Avg [6]: 40.33 percent recovered dose | ^238Pu excretion, Total Urine, Avg [6]: 25.84 percent recovered dose | 238Pu percent increase in excretion, Total Excretion [6]: 142.80% | 238Pu percent increase in excretion, Total Feces [6]: 180.35% | 238Pu percent increase in excretion, Total Urine [6]: 107.78% | ^238Pu excretion, Total Excretion, Avg [7]: 65.66 percent recovered dose | ^238Pu excretion, Total Feces, Avg [7]: 40.53 percent recovered dose | ^238Pu excretion, Total Urine, Avg [7]: 25.13 percent recovered dose | 238Pu percent increase in excretion, Total Excretion [7]: 165.93% | 238Pu percent increase in excretion, Total Feces [7]: 228.14% | 238Pu percent increase in excretion, Total Urine [7]: 115.25% | ^238Pu percent tissue reduction, GI Tract [7]: −3.93% | ^238Pu percent tissue reduction, Kidney [7]: 11.13% | ^238Pu percent tissue reduction, Liver [7]: 44.57% | ^238Pu percent tissue reduction, Soft Tissue [7]: 17.40% | ^238Pu percent tissue reduction, Total Body [7]: 43.17% | ^238Pu percent tissue reduction, Total Bone [7]: 46.78% | ^238Pu retention, GI Tract, Avg [8]: 0.75 percent recovered dose | ^238Pu retention, Kidney, Avg [8]: 0.19 percent recovered dose | ^238Pu retention, Liver, Avg [8]: 6.78 percent recovered dose | ^238Pu retention, Soft Tissue, Avg [8]: 1.93 percent recovered dose | ^238Pu retention, Total Body, Avg [8]: 27.67 percent recovered dose | ^238Pu retention, Total Bone, Avg [8]: 18.02 percent recovered dose | ^238Pu percent tissue reduction, GI Trace [8]: 49.06% | ^238Pu percent tissue reduction, Kidney [8]: 32.19% | ^238Pu percent tissue reduction, Liver [8]: 62.99% | ^238Pu percent tissue reduction, Soft Tissue [8]: 32.01% | ^238Pu percent tissue reduction, Total Body [8]: 48.44% | ^238Pu percent tissue reduction, Total Bone [8]: 40.18% | ^238Pu excretion, Total Excretion, Avg [9]: 72.33 percent recovered dose | ^238Pu excretion, Total Feces, Avg [9]: 44.91 percent recovered dose | ^238Pu excretion, Total Urine, Avg [9]: 27.43 percent recovered dose | 238Pu percent increase in excretion, Total Excretion [9]: 156.10% | 238Pu percent increase in excretion, Total Feces [9]: 200.32% | 238Pu percent increase in excretion, Total Urine [9]: 114.39% | ^238Pu retention, GI Tract, Avg [10]: 1.63 percent recovered dose | ^238Pu retention, Kidney, Avg [10]: 0.25 percent recovered dose | ^238Pu retention, Liver, Avg [10]: 12.44 percent recovered dose | ^238Pu retention, Soft Tissue, Avg [10]: 2.22 percent recovered dose | ^238Pu retention, Total Body, Avg [10]: 34.34 percent recovered dose | ^238Pu retention, Total Bone, Avg [10]: 17.81 percent recovered dose
